Results reported in the NIST ThermoML archive (doi:10.1021/je8008864).

Assay: mn = molality of the nth substance listed, in mol/kg
Conditions: 101 kPa, Liquid; for viscosity: Rotational; for mass density: Vibrating tube method

CNCCC=C1c2ccccc2CCc2ccccc21.Cl + O
Conditions	mass density [kg/m3]	viscosity [mPa·s]
293.15 K, m1 = 0.0075	998.486	1.035
293.15 K, m1 = 0.01	998.545	1.035
293.15 K, m1 = 0.0125	998.599	1.036
293.15 K, m1 = 0.0152	998.645	1.036
293.15 K, m1 = 0.0175	998.668	1.037
293.15 K, m1 = 0.02	998.705	1.037
293.15 K, m1 = 0.025	998.721	1.038
298.15 K, m1 = 0.0076	997.322	0.9368
298.15 K, m1 = 0.01	997.382	0.937
298.15 K, m1 = 0.0125	997.428	0.9374
298.15 K, m1 = 0.0152	997.469	0.9376
298.15 K, m1 = 0.0175	997.499	0.9379
298.15 K, m1 = 0.02	997.521	0.9382
298.15 K, m1 = 0.025	997.545	0.9388
303.15 K, m1 = 0.0076	995.904	0.8338
303.15 K, m1 = 0.01	995.959	0.8339
303.15 K, m1 = 0.0125	996.001	0.8342
303.15 K, m1 = 0.0152	996.045	0.8345
303.15 K, m1 = 0.0175	996.065	0.8348
303.15 K, m1 = 0.02	996.085	0.8349
303.15 K, m1 = 0.025	996.105	0.8356
308.15 K, m1 = 0.0076	994.285	0.7279
308.15 K, m1 = 0.01	994.335	0.7281
308.15 K, m1 = 0.0125	994.379	0.7283
308.15 K, m1 = 0.0152	994.409	0.7285
308.15 K, m1 = 0.0175	994.435	0.7286
308.15 K, m1 = 0.02	994.455	0.7289
308.15 K, m1 = 0.025	994.465	0.7293
310.15 K, m1 = 0.0076	993.565	0.6925
310.15 K, m1 = 0.01	993.621	0.6928
310.15 K, m1 = 0.0125	993.659	0.6929
310.15 K, m1 = 0.0152	993.689	0.6931
310.15 K, m1 = 0.0175	993.712	0.6932
310.15 K, m1 = 0.02	993.73	0.6935
310.15 K, m1 = 0.025	993.741	0.6938
313.15 K, m1 = 0.0076	992.443	0.6556
313.15 K, m1 = 0.01	992.499	0.6557
313.15 K, m1 = 0.0125	992.539	0.6558
313.15 K, m1 = 0.0152	992.571	0.656
313.15 K, m1 = 0.0175	992.592	0.6562
313.15 K, m1 = 0.02	992.601	0.6564
313.15 K, m1 = 0.025	992.609	0.6568

CC(CN(C)C)CN1c2ccccc2CCc2ccccc21.O=C(O)/C=C\C(=O)O (stereo not drawn) [trimipramine maleate] + O
Conditions	mass density [kg/m3]	viscosity [mPa·s]
293.15 K, m1 = 0.0075	998.499	1.035
293.15 K, m1 = 0.01	998.566	1.035
293.15 K, m1 = 0.0125	998.625	1.036
293.15 K, m1 = 0.0152	998.675	1.036
293.15 K, m1 = 0.0175	998.715	1.037
293.15 K, m1 = 0.02	998.745	1.038
293.15 K, m1 = 0.025	998.799	1.04
298.15 K, m1 = 0.0076	997.329	0.937
298.15 K, m1 = 0.01	997.396	0.9373
298.15 K, m1 = 0.0125	997.455	0.9376
298.15 K, m1 = 0.0152	997.499	0.9379
298.15 K, m1 = 0.0175	997.535	0.9382
298.15 K, m1 = 0.02	997.569	0.9385
298.15 K, m1 = 0.025	997.601	0.9393
303.15 K, m1 = 0.0076	995.919	0.8339
303.15 K, m1 = 0.01	995.981	0.8342
303.15 K, m1 = 0.0125	996.031	0.8345
303.15 K, m1 = 0.0152	996.081	0.8348
303.15 K, m1 = 0.0175	996.105	0.835
303.15 K, m1 = 0.02	996.141	0.8354
303.15 K, m1 = 0.025	996.175	0.8361
308.15 K, m1 = 0.0076	994.296	0.7339
308.15 K, m1 = 0.01	994.355	0.7341
308.15 K, m1 = 0.0125	994.401	0.7343
308.15 K, m1 = 0.0152	994.455	0.7346
308.15 K, m1 = 0.0175	994.475	0.7348
308.15 K, m1 = 0.02	994.515	0.7351
308.15 K, m1 = 0.025	994.535	0.7355
310.15 K, m1 = 0.0076	993.58	0.6928
310.15 K, m1 = 0.01	993.638	0.693
310.15 K, m1 = 0.0125	993.681	0.6932
310.15 K, m1 = 0.0152	993.721	0.6934
310.15 K, m1 = 0.0175	993.749	0.6937
310.15 K, m1 = 0.02	993.769	0.6939
310.15 K, m1 = 0.025	993.799	0.6943
313.15 K, m1 = 0.0076	992.458	0.6561
313.15 K, m1 = 0.01	992.506	0.6564
313.15 K, m1 = 0.0125	992.551	0.6566
313.15 K, m1 = 0.0152	992.589	0.6568
313.15 K, m1 = 0.0175	992.609	0.6571
313.15 K, m1 = 0.02	992.615	0.6573
313.15 K, m1 = 0.025	992.635	0.6579
